Test results published in patent publication US12533385B2, “Use of mulberry twig alkaloids in preparation of drug for treating polycystic ovarian syndrome” (priority 2022, dated 2026).

Test system: LZ+HFD-induced PCOS model
Assay: Pharmacodynamic experiment of mulberry extract on LZ+HFD-induced PCOS model (Experimental Example 11, incl. expanded scale)
Format: in vivo, SD rats
Settings: Met. 125 mg/kg/d, expanded scale 18 rats/group, monitored 10 days from day 10 of treatment; model group 97%, blank about 59%
Procedure: Test methods for the hormones are as follows: • E2: estradiol radioimmunoassay KIT—HTA Co., Ltd. (SFDA approval No.: 520033010); • LH: Iodine[^125I] Human Luteinizing Hormone Radioimmunoassay Kit (SFDA approval No.: 510950161); • PRL: Iodine[^125I] Prolactin Radioimmunoassay Kit (SFDA approval No.: S10950161); • T: Iodine[^125I] Testosterone Radioimmunoassay Kit (SFDA approval No.: S10940093); • ADP, GnRH, SHBG, and AMH in serum of each animal were tested using Elisa kits; • P: Progesterone Radioimmunoassay Kit—Union Medical & Pharmaceutical Technology (Tianjin) Co., Ltd. (SFDA approval No.: S10950202).
The drugs were formulated as same as in Experimental Example 10.
Eighteen 3-week-old female SD rats with good health and shiny fur were selected and adaptively fed for 3 days, and then randomized into a blank group, a model group, and a dosing group. After fed with high-fat diets for 3 weeks, the rats in the model group and the dosing group were administered with LZ (1 mg/kg/d) via gavage for 6 weeks, while being fed with HFD (high-fat diets (research diets D12492)), and the PCOS rat models were constructed. After the models were evaluated as success, the rats in the dosing group were administered according to the dosage and mode listed in the table, during which an equal amount of normal saline was given to the blank group and the model group. […]

SMILES: CN(C)C(=N)N=C(N)N [Met., Metformin]
- share of diestrus/metestrus in the estrous cycle: 74%
